From US12268674B2, “Mi-2β inhibitor as an immunotherapy agent” (BioVentures, LLC, priority 2021, dated 2025)

What was measured:
[1] = target: T1, NTPCR (Homo sapiens, UniProt Q9BSD7); assay: ATPase profile (ATP acyl phosphate probe); assay type: binding; details: SEQ ID NO: 141, ATP BS
T1 construct: to get the native cell lysate; endogenous in cells; host or cells: A375

[2] = target: T2, ALDH18A1 (Homo sapiens, UniProt P54886); assay: ATPase profile (ATP acyl phosphate probe); assay type: binding; details: ALDH18A1, SEQ ID NO: 39, ATP BS
T2 construct: to get the native cell lysate; host or cells: A375 cell lysate

[3] = target: T3, ALDH16A1 (Homo sapiens, UniProt Q8IZ83); assay: ATPase profile (ATP acyl phosphate probe); assay type: binding; details: ALDH16A1, SEQ ID NO: 38, ATP BS
T3 construct: to get the native cell lysate; host or cells: A375 cell lysate
T3 sequence (Q8IZ83 whole entry): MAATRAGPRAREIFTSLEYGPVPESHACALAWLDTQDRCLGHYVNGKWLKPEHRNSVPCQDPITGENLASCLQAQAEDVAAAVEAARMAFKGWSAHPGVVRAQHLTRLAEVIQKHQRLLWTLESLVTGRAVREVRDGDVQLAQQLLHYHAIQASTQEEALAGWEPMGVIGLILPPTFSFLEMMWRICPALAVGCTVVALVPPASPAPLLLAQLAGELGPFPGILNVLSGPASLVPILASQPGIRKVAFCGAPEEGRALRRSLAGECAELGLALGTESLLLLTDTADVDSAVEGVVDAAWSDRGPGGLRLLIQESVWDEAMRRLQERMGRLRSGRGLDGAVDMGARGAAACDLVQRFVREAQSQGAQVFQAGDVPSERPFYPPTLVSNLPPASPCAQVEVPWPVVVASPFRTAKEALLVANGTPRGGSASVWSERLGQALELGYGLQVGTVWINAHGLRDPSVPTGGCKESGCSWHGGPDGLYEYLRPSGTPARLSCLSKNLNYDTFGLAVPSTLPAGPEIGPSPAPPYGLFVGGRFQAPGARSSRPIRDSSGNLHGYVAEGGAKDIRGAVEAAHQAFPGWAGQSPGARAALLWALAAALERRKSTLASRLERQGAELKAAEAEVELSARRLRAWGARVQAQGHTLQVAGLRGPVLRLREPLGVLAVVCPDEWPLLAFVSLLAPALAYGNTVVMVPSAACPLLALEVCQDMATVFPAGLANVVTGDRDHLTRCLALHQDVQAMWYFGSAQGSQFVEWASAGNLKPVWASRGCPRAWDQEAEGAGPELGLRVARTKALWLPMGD

[4] = target: T4, DHX15 (Homo sapiens, UniProt O43143); assay: ATPase profile (ATP acyl phosphate probe); assay type: binding; details: DHX15, SEQ ID NO: 72, ATP BS
T4 construct: endogenous in cells; host or cells: A375 cell lysate

[5] = target: T5, IDI1 (Homo sapiens, UniProt Q13907); assay: ATPase profile (ATP acyl phosphate probe); assay type: binding; details: IDI1, SEQ ID NO: 111, ATP BS
T5 construct: endogenous in cells; host or cells: A375
T5 sequence (Q13907 whole entry): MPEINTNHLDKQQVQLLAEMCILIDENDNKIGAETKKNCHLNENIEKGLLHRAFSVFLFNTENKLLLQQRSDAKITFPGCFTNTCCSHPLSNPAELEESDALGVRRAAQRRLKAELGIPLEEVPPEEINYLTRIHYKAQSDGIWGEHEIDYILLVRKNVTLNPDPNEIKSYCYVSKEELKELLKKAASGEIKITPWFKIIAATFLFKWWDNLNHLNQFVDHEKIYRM

[6] = system: BAT1, DDX39; assay: ATPase profile (ATP acyl phosphate probe); assay type: binding; details: BAT1, DDX39, SEQ ID NO: 50, ATP BS
[7] = target: T6, AK2 (Homo sapiens, UniProt P54819); assay: ATPase profile (ATP acyl phosphate probe); assay type: binding; details: AK2, SEQ ID NO: 33, ATP BS
T6 construct: to get the native cell lysate; host or cells: A375 cell lysate

[8] = target: T7, SKIV2L (Homo sapiens, UniProt Q15477); assay: ATPase profile (ATP acyl phosphate probe); assay type: binding; details: SEQ ID NO: 191, ATP BS
T7 construct: to get the native cell lysate; endogenous in cells; host or cells: A375 cell lysate

[9] = target: T8, PFKM (Homo sapiens, UniProt P08237); assay: ATPase profile (ATP acyl phosphate probe); assay type: binding; details: SEQ ID NO: 159, ATP BS
T8 construct: to get the native cell lysate; endogenous in cells; host or cells: A375 cell lysate

[10] = target: T9, PEX1 (Homo sapiens, UniProt O43933); assay: ATPase profile (ATP acyl phosphate probe); assay type: binding; details: PEX1, SEQ ID NO: 156, ATP BS
T9 construct: to get the native cell lysate; endogenous in cells; host or cells: A375 cell lysate

[11] = target: T10, NADSYN1 (Homo sapiens, UniProt Q6IA69); assay: ATPase profile (ATP acyl phosphate probe); assay type: binding; details: NADSYN1, SEQ ID NO: 130, ATP BS
T10 construct: to get the native cell lysate; endogenous in cells; host or cells: A375

[12] = target: T11, DDX21 (Homo sapiens, UniProt Q9NR30); assay: ATPase profile (ATP acyl phosphate probe); assay type: binding; details: DDX21, SEQ ID NO: 67, ATP BS
T11 construct: endogenous in cells; host or cells: A375 cell lysate
T11 sequence (Q9NR30 whole entry): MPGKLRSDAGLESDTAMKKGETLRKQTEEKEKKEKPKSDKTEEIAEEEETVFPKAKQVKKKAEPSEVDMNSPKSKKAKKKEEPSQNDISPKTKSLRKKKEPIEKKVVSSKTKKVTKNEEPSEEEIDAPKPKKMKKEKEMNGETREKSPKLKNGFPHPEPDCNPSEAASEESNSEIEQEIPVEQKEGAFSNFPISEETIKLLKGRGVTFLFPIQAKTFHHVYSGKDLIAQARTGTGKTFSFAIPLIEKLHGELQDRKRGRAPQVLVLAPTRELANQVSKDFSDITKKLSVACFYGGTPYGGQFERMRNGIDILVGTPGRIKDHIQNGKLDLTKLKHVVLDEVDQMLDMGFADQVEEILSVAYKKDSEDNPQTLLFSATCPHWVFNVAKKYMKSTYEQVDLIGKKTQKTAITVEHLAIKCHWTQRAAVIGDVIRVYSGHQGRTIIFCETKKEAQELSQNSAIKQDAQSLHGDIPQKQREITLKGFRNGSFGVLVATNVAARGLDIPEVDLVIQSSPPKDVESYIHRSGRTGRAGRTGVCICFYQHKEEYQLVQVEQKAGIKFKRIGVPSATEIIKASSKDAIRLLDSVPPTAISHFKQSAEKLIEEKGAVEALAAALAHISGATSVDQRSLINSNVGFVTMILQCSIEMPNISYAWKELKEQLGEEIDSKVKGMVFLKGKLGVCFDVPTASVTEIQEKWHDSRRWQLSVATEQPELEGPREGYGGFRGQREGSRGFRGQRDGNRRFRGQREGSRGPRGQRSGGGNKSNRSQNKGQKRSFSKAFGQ

[13] = target: T12, UBA3 (Homo sapiens, UniProt Q8TBC4); assay: ATPase profile (ATP acyl phosphate probe); assay type: binding; details: UBA3, SEQ ID NO: 220, ATP BS
T12 construct: to get the native cell lysate; endogenous in cells; host or cells: A375 cell lysate

[14] = target: T13, PFKFB2 (Homo sapiens, UniProt O60825); assay: ATPase profile (ATP acyl phosphate probe); assay type: binding; details: PFKFB2, SEQ ID NO: 158, ATP BS
T13 construct: to get the native cell lysate; endogenous in cells; host or cells: A375 cell lysate
T13 sequence (O60825 whole entry): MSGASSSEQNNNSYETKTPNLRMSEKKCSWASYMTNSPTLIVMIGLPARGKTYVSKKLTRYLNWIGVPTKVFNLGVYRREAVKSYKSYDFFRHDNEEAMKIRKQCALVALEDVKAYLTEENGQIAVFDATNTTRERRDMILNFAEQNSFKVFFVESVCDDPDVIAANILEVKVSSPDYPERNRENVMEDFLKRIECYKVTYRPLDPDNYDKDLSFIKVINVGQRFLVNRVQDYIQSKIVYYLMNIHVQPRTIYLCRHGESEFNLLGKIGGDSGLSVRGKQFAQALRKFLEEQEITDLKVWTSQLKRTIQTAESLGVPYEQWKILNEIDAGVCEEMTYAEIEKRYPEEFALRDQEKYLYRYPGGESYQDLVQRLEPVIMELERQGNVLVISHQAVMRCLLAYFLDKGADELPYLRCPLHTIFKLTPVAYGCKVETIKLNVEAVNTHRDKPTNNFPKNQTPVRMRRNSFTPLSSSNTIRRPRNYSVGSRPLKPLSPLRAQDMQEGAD

[15] = Pharmacokinetics of Z36-MP5 in rats; assay type: in vivo; details: Sprague-Dawley rats; intraperitoneal 1.0 mg/kg
Procedure: Compound Z36-MP5 was evaluated in a pharmacokinetic study in male Sprague-Dawley (SD) rats following intraperitoneal injection of Z36-MP5 at 1.0 mg/kg as a solution in 5% DMSO, 30% PEG400, and 65% corn oil. Blood was collected at 0.25 h, 0.5 h, 1 h, 2 h, 4 h, 8 h, and 24 h following intraperitoneal injection. The blood samples were placed in wet ice, and serum was collected after centrifugation. Serum samples were frozen and stored at −80° C. The serum samples were analyzed utilizing HPLC-coupled tandem mass spectrometry (LC-MS/MS). Values are calculated from arithmetic mean plasma concentrations (n=3 rats per condition).

[16] = system: B16F10 cells; assay: Co-culture assay of B16F10 cells with activated Pmel-1 T cells; assay type: cell-based, mouse; details: 25 μM; IFN-γ pretreated; activated Pmel-1 T cells 1:1, three days
Procedure: Pmel-1 TCR transgenic mice were purchased from Jackson Laboratory (stock #005023). The CD8 T cells were isolated from spleen and lymph nodes from Pmel-1 transgenic mice using the CD8a^+ T Cell Isolation Kit, mouse (Miltenyi Biotec, Order no: 130-104-075) according to the manufacturer's protocol. Freshly isolated CD8 T cells were stimulated with anti-CD3/CD28 beads (Thermo Fisher Scientific #11452D) for 3 days, and then the recombinant mouse IL-2 (Biolegend, #575406) was added at 20 ng/ml. After 6 days activation, T cells were used for co-culture with B16F10 cells.
B16F10 cells with shMi-2β or shScrambles were transfected with GFP expression vector pcDNA3-EGFP (Plasmid #13031), and the stable cell line was selection with 800 μg/mL G418. For in vitro validation, Mi-2β-deficient B16F10 cells (GFP positive) were mixed with control B16F10 cells (GFP negative) at a 1:1 ratio. The cells were treated with 10 ng/ml of IFN-γ for 24 hours, and then co-cultured with activated Pmel-1 T cells. After three days, the depletion of Mi-2β knockdown B16F10 cells was determined by FACS, comparing the percentage of knockdown cells (GFP positive) to control B16F10 cells (GFP negative).

[17] = target: T14, CCT3 (Homo sapiens, UniProt P49368); assay: ATPase profile (ATP acyl phosphate probe); assay type: binding; details: CCT3, SEQ ID NO: 52, ATP BS
T14 construct: to get the native cell lysate; host or cells: A375 cell lysate

[18] = system: HSP90AA, HSP90AA2, HSP90AB1; assay: ATPase profile (ATP acyl phosphate probe); assay type: binding; details: HSP90AA2, HSP90AB1, SEQ ID NO: 96, ATP BS
[19] = target: T15, SMC4 (Homo sapiens, UniProt Q9NTJ3); assay: ATPase profile (ATP acyl phosphate probe); assay type: binding; details: SMC4, SEQ ID NO: 195, ATP BS
T15 construct: to get the native cell lysate; endogenous in cells; host or cells: A375 cell lysate

[20] = target: T16, KIAA0564 (Homo sapiens, UniProt A3KMH1); assay: ATPase profile (ATP acyl phosphate probe); assay type: binding; details: KIAA0564, SEQ ID NO: 113, ATP BS
T16 construct: to get the native cell lysate; endogenous in cells; host or cells: A375
T16 sequence (A3KMH1 29-1905): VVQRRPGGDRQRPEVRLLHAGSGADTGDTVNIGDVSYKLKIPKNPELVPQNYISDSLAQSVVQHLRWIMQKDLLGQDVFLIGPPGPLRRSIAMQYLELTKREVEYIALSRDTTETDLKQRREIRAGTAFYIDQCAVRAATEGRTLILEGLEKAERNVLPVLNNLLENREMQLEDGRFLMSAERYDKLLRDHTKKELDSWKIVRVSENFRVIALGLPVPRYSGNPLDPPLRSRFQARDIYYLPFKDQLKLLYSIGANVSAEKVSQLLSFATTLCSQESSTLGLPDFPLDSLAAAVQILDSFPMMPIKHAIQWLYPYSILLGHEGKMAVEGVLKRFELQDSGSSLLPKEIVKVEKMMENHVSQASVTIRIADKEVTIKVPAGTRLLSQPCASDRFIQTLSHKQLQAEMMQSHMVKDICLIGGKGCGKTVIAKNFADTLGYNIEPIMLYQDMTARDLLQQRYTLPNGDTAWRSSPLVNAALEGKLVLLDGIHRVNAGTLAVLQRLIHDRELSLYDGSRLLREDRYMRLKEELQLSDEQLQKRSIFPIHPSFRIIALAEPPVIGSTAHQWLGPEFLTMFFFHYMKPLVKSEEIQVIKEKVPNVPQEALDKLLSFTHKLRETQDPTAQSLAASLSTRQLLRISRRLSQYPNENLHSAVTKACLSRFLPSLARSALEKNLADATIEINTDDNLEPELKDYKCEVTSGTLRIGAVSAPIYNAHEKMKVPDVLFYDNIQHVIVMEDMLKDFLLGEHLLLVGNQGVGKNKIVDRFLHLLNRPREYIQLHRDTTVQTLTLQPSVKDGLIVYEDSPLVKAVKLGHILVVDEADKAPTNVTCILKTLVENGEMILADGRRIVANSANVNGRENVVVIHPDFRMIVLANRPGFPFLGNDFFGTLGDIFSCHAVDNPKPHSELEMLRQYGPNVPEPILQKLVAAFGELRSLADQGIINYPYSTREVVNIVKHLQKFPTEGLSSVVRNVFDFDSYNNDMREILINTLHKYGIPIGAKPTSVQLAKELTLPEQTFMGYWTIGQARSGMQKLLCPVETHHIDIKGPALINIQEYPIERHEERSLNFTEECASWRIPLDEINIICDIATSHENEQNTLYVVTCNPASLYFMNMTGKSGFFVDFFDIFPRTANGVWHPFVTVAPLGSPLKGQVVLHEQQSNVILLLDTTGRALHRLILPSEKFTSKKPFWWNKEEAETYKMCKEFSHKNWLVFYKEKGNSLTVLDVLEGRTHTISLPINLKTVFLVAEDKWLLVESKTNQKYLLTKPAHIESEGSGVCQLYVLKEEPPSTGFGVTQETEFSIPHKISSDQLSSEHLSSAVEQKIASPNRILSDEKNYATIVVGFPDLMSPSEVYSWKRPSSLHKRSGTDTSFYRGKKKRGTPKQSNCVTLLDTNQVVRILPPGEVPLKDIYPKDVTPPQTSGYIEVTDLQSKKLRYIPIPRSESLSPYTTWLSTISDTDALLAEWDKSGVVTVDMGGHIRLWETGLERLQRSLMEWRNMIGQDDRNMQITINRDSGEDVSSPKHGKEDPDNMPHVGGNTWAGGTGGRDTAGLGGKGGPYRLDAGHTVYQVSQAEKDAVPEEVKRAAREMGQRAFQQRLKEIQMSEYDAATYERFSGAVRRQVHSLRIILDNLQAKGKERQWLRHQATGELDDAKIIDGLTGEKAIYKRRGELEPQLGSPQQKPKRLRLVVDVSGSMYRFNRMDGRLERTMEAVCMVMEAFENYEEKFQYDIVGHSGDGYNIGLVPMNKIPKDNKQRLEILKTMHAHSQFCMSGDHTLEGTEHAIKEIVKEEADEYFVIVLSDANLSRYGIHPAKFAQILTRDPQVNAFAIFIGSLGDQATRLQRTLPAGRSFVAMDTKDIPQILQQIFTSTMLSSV

[21] = target: T17, PSMC3 (Homo sapiens, UniProt P17980); assay: ATPase profile (ATP acyl phosphate probe); assay type: binding; details: PSMC3, SEQ ID NO: 175, ATP BS
T17 construct: to get the native cell lysate; endogenous in cells; host or cells: A375 cell lysate

[22] = target: T18, TTL (Homo sapiens, UniProt Q8NG68); assay: ATPase profile (ATP acyl phosphate probe); assay type: binding
T18 construct: to get the native cell lysate; endogenous in cells; host or cells: A375 cell lysate
T18 sequence (Q8NG68 whole entry): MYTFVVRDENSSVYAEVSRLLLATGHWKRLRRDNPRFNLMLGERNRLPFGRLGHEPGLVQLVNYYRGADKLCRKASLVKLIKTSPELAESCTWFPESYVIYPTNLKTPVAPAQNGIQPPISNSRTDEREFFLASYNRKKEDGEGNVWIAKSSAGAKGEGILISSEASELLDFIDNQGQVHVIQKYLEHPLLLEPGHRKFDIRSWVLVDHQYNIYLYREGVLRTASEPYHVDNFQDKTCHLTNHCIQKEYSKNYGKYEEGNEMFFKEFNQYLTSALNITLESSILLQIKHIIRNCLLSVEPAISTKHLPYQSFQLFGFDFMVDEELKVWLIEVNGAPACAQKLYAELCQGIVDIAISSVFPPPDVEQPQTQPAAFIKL

T1 sequence (Q9BSD7 whole entry): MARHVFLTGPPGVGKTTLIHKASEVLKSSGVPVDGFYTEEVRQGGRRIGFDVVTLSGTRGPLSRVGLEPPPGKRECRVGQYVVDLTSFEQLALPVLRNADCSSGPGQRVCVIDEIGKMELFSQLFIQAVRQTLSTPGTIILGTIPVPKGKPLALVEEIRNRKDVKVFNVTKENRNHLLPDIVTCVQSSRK

Compound: Cn1c(=O)[nH]c2ccc(-c3cccc(C(=O)NC4CCn5ccnc5C4)c3)cc21 (centres unmarked) [Z36-MP5, 3-(3-methyl-2-oxo-2,3-dihydro-1H-benzo[d]imidazol-5-yl)-N-(5,6,7,8-tetrahydroimidazo[1,2-a]pyridin-7-yl)benzamide]
- Inhibition (%) by 1 μM Z36-MP5 [1]: −14.99%
- Inhibition (%) by 1 μM Z36-MP5 [2]: −6.95%
- Inhibition (%) by 1 μM Z36-MP5 [3]: −1.13%
- Inhibition (%) by 1 μM Z36-MP5 [4]: −5.22%
- Inhibition (%) by 1 μM Z36-MP5 [5]: 5.48%
- Inhibition (%) by 1 μM Z36-MP5 [6]: −10.93%
- Inhibition (%) by 1 μM Z36-MP5 [7]: −4.75%
- Inhibition (%) by 1 μM Z36-MP5 [8]: −3.49%
- Inhibition (%) by 1 μM Z36-MP5 [9]: −8.93%
- Inhibition (%) by 1 μM Z36-MP5 [10]: −4.27%
- Inhibition (%) by 1 μM Z36-MP5 [11]: −2.19%
- Inhibition (%) by 1 μM Z36-MP5 [12]: 3.05%
- Inhibition (%) by 1 μM Z36-MP5 [13]: −11.62%
- Inhibition (%) by 1 μM Z36-MP5 [14]: 14.74%
- half-life T1/2 [15]: 27 min
- T cell-mediated killing of B16F10 cells [16]: significantly induced
- Inhibition (%) by 1 μM Z36-MP5 [17]: 10.09%
- Inhibition (%) by 1 μM Z36-MP5 [18]: −5.50%
- Inhibition (%) by 1 μM Z36-MP5 [19]: −7.11%
- Inhibition (%) by 1 μM Z36-MP5 [20]: 11.07%
- Inhibition (%) by 1 μM Z36-MP5 [21]: 5.71%
- Inhibition (%) by 1 μM Z36-MP5 ([22]; SEQ ID NO: 213, ATP BS): 10.59%
- Inhibition (%) by 1 μM Z36-MP5 ([22]; SEQ ID NO: 214, ATP BS): −14.46%
